± gives the expanded uncertainty stated by the source.
Tests used:
[1] = for mass density: 101.33 kPa, Liquid, Vibrating tube method
[2] = xn = mol fraction of the nth substance listed; settings: x2 = 0

Compound	surface tension liquid-gas ([1]; 293.15 K) [mN/m]	mass density ([1]; 293.15 K) [kg/m3]	surface tension liquid-gas ([1]; 298.15 K) [mN/m]	mass density ([1]; 298.15 K) [kg/m3]	surface tension liquid-gas ([1]; 303.15 K) [mN/m]	mass density ([1]; 303.15 K) [kg/m3]	surface tension liquid-gas ([1]; 308.15 K) [mN/m]	mass density ([1]; 308.15 K) [kg/m3]	surface tension liquid-gas ([2]; 293.15 K) [mN/m]	surface tension liquid-gas ([2]; 298.15 K) [mN/m]	surface tension liquid-gas ([2]; 303.15 K) [mN/m]	surface tension liquid-gas ([2]; 308.15 K) [mN/m]
CCCC(=O)O [butanoic acid]	26.73 ± 0.78	957.61 ± 0.13	26.19 ± 0.77	952.77 ± 0.13	25.56 ± 0.76	947.94 ± 0.13	25.03 ± 0.75	942.91 ± 0.13	–	–	–	–
CCCCCC(=O)O [hexanoic acid]	28.12 ± 0.8	925.38 ± 0.14	27.54 ± 0.79	921.2 ± 0.14	27.12 ± 0.78	917.02 ± 0.14	26.66 ± 0.78	912.6 ± 0.14	–	–	–	–
CCCCC(=O)O [pentanoic acid]	27.13 ± 0.79	938.29 ± 0.3	26.8 ± 0.79	933.9 ± 0.3	26.23 ± 0.78	929.39 ± 0.3	25.8 ± 0.77	924.73 ± 0.3	–	–	–	–
CCC(=O)O [propanoic acid]	26.68 ± 0.78	993.42 ± 0.12	26.11 ± 0.77	988.21 ± 0.12	25.7 ± 0.76	982.88 ± 0.12	25.16 ± 0.76	977.43 ± 0.12	–	–	–	–
O [water] + CCC(=O)O	–	–	–	–	–	–	–	–	72.58 ± 1.4	71.81 ± 1.4	71.04 ± 1.4	70.23 ± 1.4
O [water] + CCCC(=O)O	–	–	–	–	–	–	–	–	72.58 ± 1.4	71.81 ± 1.4	71.04 ± 1.4	70.23 ± 1.4
O [water] + CCCCC(=O)O	–	–	–	–	–	–	–	–	72.58 ± 1.4	71.81 ± 1.4	71.04 ± 1.4	70.23 ± 1.4
O [water] + CCCCCC(=O)O	–	–	–	–	–	–	–	–	72.58 ± 1.4	71.81 ± 1.4	71.04 ± 1.4	70.23 ± 1.4

— the NIST ThermoML archive (doi:10.1021/je1002829)
